Values after ≈ are worked out from the molar mass of the structure shown. Like-named read-outs stand apart in the source and are kept apart here.
What was measured:
[1] = system: Aspergillus fumigatus IAM 2034; assay: MIC, two-fold agar dilution, A. fumigatus IAM 2034; assay type: cell-based; details: IAM2034
Procedure: (§1) Minimum inhibitory concentrations (MICs) of nine 4'-N-substituted pradimicin derivatives were determined by two-fold agar dilution method on phosphate-buffered yeast morphology agar (YMA, pH 7.0, Difco Laboratories). A 5-μl of fungal cell suspension containing 2×10^6 cells/ml (2×10^7 cells/ml for Trichophyton mentagrophytes) were spotted on the surface of the agar plates containing test compound. MICs were recorded after 40-hour incubation at 28° C. except for T. mentagrophytes, which required 60-hour incubation to produce visually evaluable growth on the drug-free control plates and were defined as the lowest antibiotic concentrations showing no growth or less than five discrete colonies per spot.
(§2) Medium: yeast morphology agar + 1/15 M phosphate buffer (pH 7.0)
(§3) Incubation conditions: 28° C., 40 hours (C. albicans ATCC 38247 & T.
(§4) Medium: Yeast morphology agar + 1/15 phosphate buffer (pH 7.0).

Candida tropicalis 85-8 = assay: MIC, two-fold agar dilution, C. tropicalis 85-8; assay type: cell-based; details: 858, YMA pH 7.0, 28° C., 40 hours
Procedure: as §1, §2, §3, §4

Candida albicans 83-2-14 = assay: MIC, two-fold agar dilution, C. albicans 83-2-14; assay type: cell-based; details: 83214, YMA pH 7.0, 28° C., 40 hours
Procedure: as §1, §2, §3, §4

Candida albicans A9540 [2] = assay: MIC, two-fold agar dilution, C. albicans A9540; assay type: cell-based
Procedure: as §1, §2, §3, §4

[3] = system: Candida albicans ATCC 32354; assay: MIC, two-fold agar dilution, C. albicans ATCC 32354; assay type: cell-based; details: ATCC32354, YMA pH 7.0, 28° C., 40 hours
Procedure: as §1, §2, §3, §4

[4] = system: Trichophyton mentagrophytes #4329; assay: MIC, two-fold agar dilution, T. mentagrophytes #4329; assay type: cell-based
Procedure: as §1, §2, §3
(§5) mentagrophytes #4329: 28° C., 60 hours).
as §4

[5] = Water solubility at neutral pH in PBS containing Ca^2+/Mg^2+; assay type: physicochemical; details: pbs with ca2+/mg2+; Table 3; water-solubility at neutral pH in phosphate buffered saline containing Ca^2+/Mg^2+
Procedure: The compounds of the invention have good water solubility. Typically, the water solubility is greater than 10 mg/ml when measured at neutral pH in PBS containing Ca^2+ /Mg^2+, preferably greater than 20 mg/ml.
^2) Water-solubility at neutral pH in phosphate buffered saline
containing Ca^2+ /Mg^2+.

[6] = system: Cryptococcus neoformans IAM 4514; assay: MIC, two-fold agar dilution, C. neoformans IAM 4514; assay type: cell-based; details: IAM4514
Procedure: as §1, §2, §3, §4

Candida albicans A9540 [7] = assay: animal or person; assay type: in vivo, male ICR mice infected with Candida albicans A9540; details: Candida albicans; for ED50: Table 2, 95% confidence limits in parentheses, read-out: PD50 (50% protection dose)
Procedure: (§6) The in vivo therapeutic efficacies of seven 4'-N-substituted pradimicin derivatives, KHM-1, KHM-2, KHM-3, KHM-4, KHM-5, KHM-6 and KHM-7 were evaluated in the mouse infected with Candida albicans A9540 and Aspergillus fumigatusIAM 2034. Groups of five specific-pathogen-free male ICR mice weighing 20-25 g at each dose level were intravenously infected with approximately 10 times the 50% lethal dose of C. albicans A9540 (1×10^6 cells/mouse) or A. fumigatus IAM 2034 (1×10^7 cells/mouse). Immediately after the fungal infection, test compounds dissolved with 10% DMSO in distilled water were intravenously given to the mouse at the dosed volume of 0.1 ml/10 g of body weight. […] Untreated control animals died 7 to 13 days post-infection.

[8] = system: Aspergillus fumigatus IAM 2034; assay: Therapeutic efficacy in Aspergillus fumigatus systemic infection in mice; assay type: in vivo, male ICR mice infected with Aspergillus fumigatus IAM 2034; details: IAM2034, 480 h; for responders at 6.3 mg/kg: 6.3 mg/kg iv; for responders at 6.3 mg/kg / responders at 12.5 mg/kg / responders at 25 mg/kg / responders at 50 mg/kg: 20th day post-infection, read-out: S/T (No. of survivors/tested) (converted); for responders at 12.5 mg/kg: 12.5 mg/kg iv; for responders at 25 mg/kg: 25 mg/kg iv; for responders at 50 mg/kg: 50 mg/kg iv
Procedure: as §6

[9] = system: Saccharomyces cerevisiae ATCC 9763; assay: MIC, two-fold agar dilution, S. cerevisiae ATCC 9763; assay type: cell-based; details: ATCC9763, YMA pH 7.0, 28° C., 40 hours
Procedure: as §1, §2, §3, §4

[10] = system: Candida albicans IAM 4888; assay: MIC, two-fold agar dilution, C. albicans IAM 4888; assay type: cell-based; details: IAM4888, YMA pH 7.0, 28° C., 40 hours
Procedure: as §1, §2, §3, §4

[11] = system: Candida albicans ATCC 38247; assay: MIC, two-fold agar dilution, C. albicans ATCC 38247; assay type: cell-based; details: ATCC38247, YMA pH 7.0, 28° C., 60 hours (table footnote)
Procedure: as §1, §2, §3, §5, §4

[12] = system: Candida tropicalis IFO 10241; assay: MIC, two-fold agar dilution, C. tropicalis IFO 10241; assay type: cell-based; details: IFO10241, YMA pH 7.0, 28° C., 40 hours
Procedure: as §1, §2, §3, §4

[13] = system: Cryptococcus neoformans D49; assay: MIC, two-fold agar dilution, C. neoformans D49; assay type: cell-based; details: YMA pH 7.0, 28° C., 40 hours
Procedure: as §1, §2, §3, §4

[14] = Aspergillus fumigatus IAM 2034, YMA pH 7.0, 28° C., 40 hours, read-out: MIC
[15] = Table 3, Aspergillus fumigatus IAM 2034, YMA, read-out: MIC Af-3
[16] = Candida albicans A9540, YMA pH 7.0, 28° C., 40 hours, read-out: MIC
[17] = Table 3, Candida albicans A9540, YMA, read-out: MIC Ca-4
[18] = Table 3, Trichophyton mentagrophytes #4329, YMA, read-out: MIC TM-4
[19] = Trichophyton mentagrophytes #4329, YMA pH 7.0, 28° C., 60 hours, read-out: MIC
[20] = Cryptococcus neoformans IAM 4514, YMA pH 7.0, 28° C., 40 hours, read-out: MIC
[21] = Table 3, Cryptococcus neoformans IAM 4514, YMA, read-out: MIC Cn-2
[22] = A9540, 480 h, C. albicans, mice, iv
[23] = A9540, in Mus musculus, iv, 480 h, read-out: S/T (No. of survivors/tested)
[24] = Aspergillus fumigatus, A. fumigatus, mice
[25] = Aspergillus fumigatus, Table 2, A. fumigatus, mice, iv, 95% confidence limits in parentheses, read-out: PD50 (50% protection dose)

| Structure (SMILES) | MIC [1, 14] [µg/mL] | MIC [1, 15] [µg/mL] | MIC (Candida tropicalis 85-8) [µg/mL] | MIC (Candida albicans 83-2-14) [µg/mL] | MIC (Candida albicans A9540 [2]; [16]) [µg/mL] | MIC (Candida albicans A9540 [2]; [17]) [µg/mL] | MIC [3] [µg/mL] | MIC [4, 18] [µg/mL] | MIC [4, 19] [µg/mL] | solubility [5] [µg/mL] | MIC [6, 20] [µg/mL] | MIC [6, 21] [µg/mL] | ED50 (Candida albicans A9540 [7]; [22]) [mg/kg] | responders at 6.3 mg/kg [8, 24] [%] | responders at 12.5 mg/kg [8, 24] [%] | responders at 25 mg/kg [8, 24] [%] | responders at 50 mg/kg [8, 24] [%] | ED50 [8, 25] [mg/kg] | MIC [9] [µg/mL] | MIC [10] [µg/mL] | other results |
| --- | --- | --- | --- | --- | --- | --- | --- | --- | --- | --- | --- | --- | --- | --- | --- | --- | --- | --- | --- | --- | --- |
| COc1cc(O)c2c(c1)C(=O)c1c(cc3c(c1O)-c1c(cc(C)c(C(=O)N[C@H](C)C(=O)O)c1O)[C@H](O[C@@H]1O[C@H](C)[C@H](NC(=N)N[N+](=O)[O-])[C@H](O[C@@H]4OC[C@@H](O)[C@H](O)[C@H]4O)[C@H]1O)[C@H]3O)C2=O [KHM-7, 4'-Nitroquanidinopradimicin C] | 3.1 (≈ 3.39 µM) | 3.1 (≈ 3.39 µM) | 12.5 (≈ 13.7 µM) | 6.3 (≈ 6.89 µM) | 3.1 (≈ 3.39 µM) | 3.1 (≈ 3.39 µM) | 3.1 (≈ 3.39 µM) | 3.1 (≈ 3.39 µM) | 3.1 (≈ 3.39 µM) | > 20000 | 1.6 (≈ 1.75 µM) | 1.6 (≈ 1.75 µM) | 12 | 20 | 40 | 0 | 20 | > 50 | 3.1 (≈ 3.39 µM) | 3.1 (≈ 3.39 µM) | responders at 6.3 mg/kg (Candida albicans A9540 [7]; [23]): 40%; responders at 12.5 mg/kg (Candida albicans A9540 [7]; [23]): 60%; responders at 25 mg/kg (Candida albicans A9540 [7]; [23]): 60%; responders at 50 mg/kg (Candida albicans A9540 [7]; [23]): 80%; ED50 ([8]; Table 3, Aspergillus fumigatus IAM 2034, iv, read-out: PD50 (mice) Af-3): > 50 mg/kg; MIC [11]: 1.6 µg/mL (≈ 1.75 µM); MIC [12]: 12.5 µg/mL (≈ 13.7 µM); MIC [13]: 3.1 µg/mL (≈ 3.39 µM) |
| CN[C@@H]1[C@H](O[C@@H]2OC[C@@H](O)[C@H](O)[C@H]2O)[C@@H](O)[C@H](O[C@H]2c3cc(C)c(C(=O)N[C@H](C)C(=O)O)c(O)c3-c3c(cc4c(c3O)C(=O)c3cc(OC)cc(O)c3C4=O)[C@@H]2O)O[C@@H]1C [Pradimicin A, reference compound] | 1.6 (≈ 1.9 µM) | 0.8 (≈ 0.951 µM) | > 100 | > 100 | 12.5 (≈ 14.9 µM) | 12.5 (≈ 14.9 µM) | 3.1 (≈ 3.69 µM) | 3.1 (≈ 3.69 µM) | 3.1 (≈ 3.69 µM) | 20 (≈ 23.8 µM) | 1.6 (≈ 1.9 µM) | 1.6 (≈ 1.9 µM) | 10 | 0 | 20 | 60 | 100 | 23 | 6.3 (≈ 7.49 µM) | 6.3 (≈ 7.49 µM) | responders at 6.3 mg/kg (Candida albicans A9540 [7]; A9540, 480 h, C. albicans, mice, 6.3 mg/kg iv, 20th day post-infection, read-out: S/T (No. of survivors/tested) (converted)): 0%; responders at 12.5 mg/kg (Candida albicans A9540 [7]; A9540, 480 h, C. albicans, mice, 12.5 mg/kg iv, 20th day post-infection, read-out: S/T (No. of survivors/tested) (converted)): 80%; responders at 25 mg/kg (Candida albicans A9540 [7]; A9540, 480 h, C. albicans, mice, 25 mg/kg iv, 20th day post-infection, read-out: S/T (No. of survivors/tested) (converted)): 100%; responders at 50 mg/kg (Candida albicans A9540 [7]; A9540, 480 h, C. albicans, mice, 50 mg/kg iv, 20th day post-infection, read-out: S/T (No. of survivors/tested) (converted)): 100%; MIC [11]: 3.1 µg/mL (≈ 3.69 µM); MIC [12]: > 100 µg/mL; MIC [13]: 1.6 µg/mL (≈ 1.9 µM) |
